Source: ChEMBL document CHEMBL5550136, “Total synthesis/semi-synthesis of natural isopentenyl flavonoids with inhibitory activity on NLRP3 inflammasome” (Bioorg Med Chem Lett, 2024)
The source made the active and inactive calls. The calls are words filed in the database; no cut-off is given here.

Tests used:
[1] = target: NACHT, LRR and PYD domains-containing protein 3 (Mus musculus, UniProt Q8R4B8); assay: Inhibition of NLRP3 inflammasome activation in mouse BMDM cells assessed as reduction in IL-1beta release by ELISA; format: cell-based
[2] = target: NACHT, LRR and PYD domains-containing protein 3 (Mus musculus) (UniProt Q8R4B8); assay: Inhibition of NLRP3 inflammasome activation in mouse BMDM cells assessed as inhibition of mature IL-1beta release by immunoblotting analysis; format: cell-based
[3] = target: NACHT, LRR and PYD domains-containing protein 3 (Mus musculus) (UniProt Q8R4B8); assay: Inhibition of NLRP3 inflammasome activation in mouse BMDM cells assessed as inhibition of caspase-1 release by immunoblotting analysis; format: cell-based
BMDM [4] = assay: Effect on NLRP3 protein expression in mouse BMDM cells; format: functional, cell-based
BMDM [5] = assay: Effect on pro-caspase-1 protein expression in mouse BMDM cells; format: functional, cell-based
BMDM [6] = assay: Effect on pro-IL-1beta protein expression in mouse BMDM cells; format: functional, cell-based

NACHT, LRR and PYD domains-containing protein 3, sequence (Q8R4B8 whole entry, the tested form may be a part): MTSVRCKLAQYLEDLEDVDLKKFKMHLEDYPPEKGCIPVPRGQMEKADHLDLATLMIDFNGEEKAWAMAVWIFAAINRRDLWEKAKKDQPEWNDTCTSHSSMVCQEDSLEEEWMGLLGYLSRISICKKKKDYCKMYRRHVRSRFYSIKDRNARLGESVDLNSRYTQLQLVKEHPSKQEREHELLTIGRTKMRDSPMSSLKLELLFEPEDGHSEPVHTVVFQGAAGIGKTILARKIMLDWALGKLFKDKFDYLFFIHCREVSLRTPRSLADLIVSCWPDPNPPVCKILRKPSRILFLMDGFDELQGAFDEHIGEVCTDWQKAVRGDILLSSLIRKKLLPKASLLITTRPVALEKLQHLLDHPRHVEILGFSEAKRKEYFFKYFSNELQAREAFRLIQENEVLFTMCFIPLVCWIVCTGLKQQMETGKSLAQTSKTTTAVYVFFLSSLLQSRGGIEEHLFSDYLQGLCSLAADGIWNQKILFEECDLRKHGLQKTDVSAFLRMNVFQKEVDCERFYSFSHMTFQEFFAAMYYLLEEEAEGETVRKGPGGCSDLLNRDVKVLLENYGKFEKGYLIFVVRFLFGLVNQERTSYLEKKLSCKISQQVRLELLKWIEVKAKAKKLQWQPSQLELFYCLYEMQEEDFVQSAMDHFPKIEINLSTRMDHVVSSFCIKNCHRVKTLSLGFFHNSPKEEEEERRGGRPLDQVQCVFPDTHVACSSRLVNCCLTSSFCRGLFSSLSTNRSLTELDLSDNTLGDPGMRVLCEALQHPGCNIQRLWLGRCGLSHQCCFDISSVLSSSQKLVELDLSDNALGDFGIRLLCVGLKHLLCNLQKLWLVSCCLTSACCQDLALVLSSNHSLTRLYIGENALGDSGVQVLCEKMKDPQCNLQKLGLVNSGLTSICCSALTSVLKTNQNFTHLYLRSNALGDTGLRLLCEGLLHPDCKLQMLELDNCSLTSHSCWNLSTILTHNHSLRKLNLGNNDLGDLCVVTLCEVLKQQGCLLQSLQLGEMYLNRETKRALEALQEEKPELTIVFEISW
NACHT, LRR and PYD domains-containing protein 3 (Mus musculus), sequence (Q8R4B8 whole entry, the tested form may be a part): as above

| Compound | IC50 [1] | also measured |
| --- | --- | --- |
| COc1cc(-c2cc(=O)c3c(O)cc(O)c(CC=C(C)C)c3o2)ccc1O | 41.2 µM | – |
| COc1cc(-c2cc(=O)c3c(O)cc4c(c3o2)C=CC(C)(C)O4)ccc1O | > 100 µM | – |
| O=c1c(O)c(-c2ccc(O)c(O)c2)oc2cc(O)cc(O)c12 [QUERCETIN] | 37.1 µM | – |
| COc1ccc(-c2cc(=O)c3c(O)cc4c(c3o2)C=CC(C)(C)O4)cc1 | > 100 µM | – |
| O=c1c(O)c(-c2ccc(O)cc2)oc2cc(O)cc(O)c12 [KAEMPFEROL] | > 100 µM | – |

The next molecules have a lower IC50 [1] than those just listed; values first:

| IC50 [1] | Compound | also measured |
| --- | --- | --- |
| 20.4 µM | CC(C)=CCc1c(O)cc2oc(-c3ccc(O)c(O)c3)c(O)c(=O)c2c1O [GANCAONIN P] | – |
| 17.3 µM | COc1cc(C2CC(=O)c3c(O)cc(O)c(CC=C(C)C)c3O2)c(O)cc1O (stereo not given) [KUSHENOL W] | – |
| 11.4 µM | COc1ccc(-c2cc(=O)c3c(O)cc(O)c(CC=C(C)C)c3o2)cc1 | – |
| 8.5 µM | CC(C)=CCc1c(O)cc2oc(-c3ccc(O)cc3)c(O)c(=O)c2c1O [LICOFLAVONOL] | – |
| 3.4 µM | CC(C)=CCC/C(C)=C/Cc1c(O)cc2oc(-c3ccc(O)cc3)c(O)c(=O)c2c1O [MACARANGIN] | inhibition [2]: Dose-Dependent Effect; inhibition [3]: Dose-Dependent Effect; Activity (BMDM [4]): inactive; Activity (BMDM [5]): inactive; Activity (BMDM [6]): inactive |
